The target of experiment [1] is Rho-associated protein kinase 2 (Bos taurus) (UniProt Q28021). Description: Binding affinity to ROCK2 by fluorescence polarization assay. Background: Polarisation of emitted light reports the rotation of a fluorescent probe.
Experiment [2] concerns the target T1, cAMP-dependent protein kinase catalytic subunit alpha (Homo sapiens, UniProt P17612). Description: Inhibition of PKA catalytic subunit alpha using 100 uM ATP and 30 uM TAMRA-kemptide substrate by fluorometric TLC assay.
Experiment [3] concerns the target T1, cAMP-dependent protein kinase catalytic subunit alpha. The experiment can be described thus: Binding affinity to PKA catalytic subunit alpha by fluorescence polarization assay.
Experiment [4] addresses RAC-gamma serine/threonine-protein kinase (Homo sapiens, UniProt Q9Y243). Description: Inhibition of PKBgamma using 100 uM ATP and 30 uM TAMRA-kemptide substrate by fluorometric TLC assay.

pIC50, pKd: −log10 of the molar value.

Sequence of RAC-gamma serine/threonine-protein kinase (Q9Y243 whole entry): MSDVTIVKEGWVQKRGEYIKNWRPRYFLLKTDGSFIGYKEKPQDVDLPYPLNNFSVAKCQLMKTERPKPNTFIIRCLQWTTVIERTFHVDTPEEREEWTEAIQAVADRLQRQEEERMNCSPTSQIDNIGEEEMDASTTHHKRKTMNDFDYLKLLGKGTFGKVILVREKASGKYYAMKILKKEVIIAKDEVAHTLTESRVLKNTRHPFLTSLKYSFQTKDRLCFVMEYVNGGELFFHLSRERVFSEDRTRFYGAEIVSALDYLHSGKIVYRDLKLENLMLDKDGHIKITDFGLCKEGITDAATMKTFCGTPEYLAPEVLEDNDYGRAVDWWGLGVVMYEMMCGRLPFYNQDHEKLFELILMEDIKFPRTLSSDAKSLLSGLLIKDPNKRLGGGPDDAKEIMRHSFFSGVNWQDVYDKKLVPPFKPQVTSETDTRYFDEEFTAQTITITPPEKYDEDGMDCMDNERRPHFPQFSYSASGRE
Sequence of Rho-associated protein kinase 2 (Bos taurus) (Q28021 whole entry, looked up): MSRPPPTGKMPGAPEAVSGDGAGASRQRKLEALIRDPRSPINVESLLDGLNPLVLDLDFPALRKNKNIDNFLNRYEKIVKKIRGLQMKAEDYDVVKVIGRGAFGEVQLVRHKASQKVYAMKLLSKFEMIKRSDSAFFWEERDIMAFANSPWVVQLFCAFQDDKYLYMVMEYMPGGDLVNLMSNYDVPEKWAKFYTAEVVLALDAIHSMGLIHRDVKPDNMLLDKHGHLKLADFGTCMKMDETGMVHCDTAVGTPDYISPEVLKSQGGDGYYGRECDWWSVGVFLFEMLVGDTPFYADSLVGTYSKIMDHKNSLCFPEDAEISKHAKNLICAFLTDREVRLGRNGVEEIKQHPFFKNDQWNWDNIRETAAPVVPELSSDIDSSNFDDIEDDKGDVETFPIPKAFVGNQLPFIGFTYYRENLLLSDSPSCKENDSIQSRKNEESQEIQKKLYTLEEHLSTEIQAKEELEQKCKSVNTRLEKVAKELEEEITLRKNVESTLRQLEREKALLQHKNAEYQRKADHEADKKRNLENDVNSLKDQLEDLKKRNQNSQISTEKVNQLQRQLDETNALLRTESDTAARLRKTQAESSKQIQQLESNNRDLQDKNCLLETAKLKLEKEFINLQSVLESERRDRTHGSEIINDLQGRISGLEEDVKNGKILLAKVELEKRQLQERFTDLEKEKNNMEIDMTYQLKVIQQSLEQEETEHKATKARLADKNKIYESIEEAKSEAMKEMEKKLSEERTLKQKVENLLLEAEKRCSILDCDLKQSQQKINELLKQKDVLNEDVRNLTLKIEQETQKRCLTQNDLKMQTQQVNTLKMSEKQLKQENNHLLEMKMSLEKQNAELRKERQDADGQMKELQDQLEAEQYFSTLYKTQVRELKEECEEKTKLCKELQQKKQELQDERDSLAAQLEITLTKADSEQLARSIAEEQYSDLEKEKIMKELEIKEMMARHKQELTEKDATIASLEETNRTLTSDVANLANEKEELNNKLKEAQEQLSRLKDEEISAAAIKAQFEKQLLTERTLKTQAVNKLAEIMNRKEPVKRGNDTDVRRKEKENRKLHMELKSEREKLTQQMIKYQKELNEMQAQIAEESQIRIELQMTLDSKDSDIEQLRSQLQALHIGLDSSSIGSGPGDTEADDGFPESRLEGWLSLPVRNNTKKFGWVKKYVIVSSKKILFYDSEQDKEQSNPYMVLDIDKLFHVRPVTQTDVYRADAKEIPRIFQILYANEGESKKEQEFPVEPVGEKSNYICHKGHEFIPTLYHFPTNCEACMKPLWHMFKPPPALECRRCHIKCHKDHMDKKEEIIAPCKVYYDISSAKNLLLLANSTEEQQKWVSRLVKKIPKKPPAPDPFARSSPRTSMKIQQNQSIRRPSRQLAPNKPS

For orientation: pKd means −log10 of the Kd, conventionally taken in molar units. Read a high pKd as a low Kd. By pIC50 is commonly meant the IC50 on a negative log10 scale, so that one unit is a factor of ten. On to `NCCCC[C@@H](NC(=O)CCCCCNC(=O)[C@H]1O[C@@H](n2cnc3c(N)ncnc32)[C@H](O)[C@@H]1O)C(=O)NCCCCCC(=O)N[C@H](CCCN=C(N)N)C(=O)N[C@H](CCCN=C(N)N)C(=O)N[C@H](CCCN=C(N)N)C(=O)N[C@H](CCCN=C(N)N)C(N)=O`, for which the values for the pKd in experiment [1] and in experiment [3] were greater than 9.00 and 9.30, respectively. Moreover, the pIC50 in experiment [2] is 7.87; in experiment [4], 7.25. For `NC(=O)CCCCCNC(=O)[C@H]1O[C@@H](n2cnc3c(N)ncnc32)[C@H](O)[C@@H]1O`, in that order: 5.35, 5.66, 4.59 and less than 3.00. For `Nc1ncnc2c1ncn2[C@@H]1O[C@H](C(=O)NCCCCCC(=O)O)[C@@H](O)[C@H]1O`, the pKd in experiment [3] is 4.25.

`NCCCC[C@H](NC(=O)CCCCCNC(=O)[C@H]1O[C@@H](n2cnc3c(N)ncnc32)[C@H](O)[C@@H]1O)C(=O)NCCCCCC(=O)N[C@H](CCCN=C(N)N)C(=O)N[C@H](CCCN=C(N)N)C(N)=O` showed a pKd in experiment [3] of 6.23.

Consider `NC(=O)[C@@H](CCCN=C(N)N)NC(=O)[C@@H](CCCN=C(N)N)NC(=O)CCCCCNC(=O)[C@H]1O[C@@H](n2cnc3c(N)ncnc32)[C@H](O)[C@@H]1O`, for which the pIC50 in experiment [2] was 5.59. In turn, `Nc1ncnc2c1ncn2[C@@H]1O[C@H](C(=O)NCCCCCC(=O)NCCO)[C@@H](O)[C@H]1O` had a pKd in experiment [3] of 4.73. Still for that read-out and setting: the figure for `NCCCC[C@@H](NC(=O)CCCCCNC(=O)[C@H]1O[C@@H](n2cnc3c(N)ncnc32)[C@H](O)[C@@H]1O)C(=O)NCCCCCC(=O)N[C@@H](CCCN=C(N)N)C(=O)N[C@@H](CCCN=C(N)N)C(N)=O` is 8.06; for `NCCCC[C@@H](NC(=O)CCCCCNC(=O)[C@H]1O[C@@H](n2cnc3c(N)ncnc32)[C@H](O)[C@@H]1O)C(=O)NCCCC(=O)N[C@H](CCCN=C(N)N)C(=O)N[C@H](CCCN=C(N)N)C(N)=O` it is 7.90; for `Nc1ncnc2c1ncn2[C@@H]1O[C@H](C(=O)NCCCCCC(=O)NCc2ccccc2)[C@@H](O)[C@H]1O` it is 4.87. Consider `N=C(N)NCCC[C@@H](NC(=O)[C@@H](CCCNC(=N)N)NC(=O)CCCCCCCNC(=O)[C@@H](CCCCN)NC(=O)CCCCCNC(=O)[C@H]1O[C@@H](n2cnc3c(N)ncnc32)[C@H](O)[C@@H]1O)C(N)=O`, for which the pKd in experiment [3] is 8.02. With `NCCCC[C@@H](NC(=O)CCCCCNC(=O)[C@H]1O[C@@H](n2cnc3c(N)ncnc32)[C@H](O)[C@@H]1O)C(=O)NCCCCCC(=O)N[C@H](CCCN=C(N)N)C(=O)N[C@H](CCCN=C(N)N)C(N)=O`, the pKd in experiment [1] is 8.85; in experiment [3] it was 8.12. Besides, the pIC50 was 7.27 in experiment [2] and 6.11 in experiment [4]. On to `N=C(N)NCCC[C@@H](NC(=O)[C@@H](CCCNC(=N)N)NC(=O)CCCNC(=O)CCCCCNC(=O)[C@H]1O[C@@H](n2cnc3c(N)ncnc32)[C@H](O)[C@@H]1O)C(N)=O`, for which the pKd in experiment [3] was 6.61.

`NCCCC[C@@H](NC(=O)CCCCCNC(=O)[C@H]1O[C@@H](n2cnc3c(N)ncnc32)[C@H](O)[C@@H]1O)C(N)=O`: in experiment [3], the negative-log Kd (pKd) was 6.35. The same measure, in the same setting: the figure for `NC(=O)[C@@H](CCCN=C(N)N)NC(=O)[C@@H](CCCN=C(N)N)NC(=O)CCCCCNC(=O)CCCCCNC(=O)[C@H]1O[C@@H](n2cnc3c(N)ncnc32)[C@H](O)[C@@H]1O` is 7.08. For `C[C@@H](NC(=O)CCCCCNC(=O)[C@@H]1C[C@@H](O)[C@H](n2cnc3c(N)ncnc32)C1)C(=O)NCCCCCC(=O)N[C@H](CCCNC(=N)N)C(=O)N[C@H](CCCNC(=N)N)C(N)=O`, the pKd in experiment [1] is 6.73; in experiment [3], 8.74. The results for the pIC50 in experiment [2] and in experiment [4] were 7.68 and 5.69, respectively. In turn, `NC(=O)[C@H](Cc1ccc(C(=O)c2ccccc2)cc1)NC(=O)CCCCCNC(=O)[C@H]1O[C@@H](n2cnc3c(N)ncnc32)[C@H](O)[C@@H]1O` showed a pKd in experiment [3] of less than 4.00. On the same count and under the same terms, for `NC(=O)[C@@H](CCCN=C(N)N)NC(=O)[C@@H](CCCN=C(N)N)NC(=O)CCCCCCCNC(=O)CCCCCNC(=O)[C@H]1O[C@@H](n2cnc3c(N)ncnc32)[C@H](O)[C@@H]1O` the value was 7.02; for `NC(=O)CCCCCNC(=O)OC[C@H]1O[C@@H](n2cnc3c(N)ncnc32)[C@H](O)[C@@H]1O`, 4.28.

With `NC(=O)CCCNC(=O)OC[C@H]1O[C@@H](n2cnc3c(N)ncnc32)[C@H](O)[C@@H]1O`, the pKd in experiment [3] is 4.01. The same measure, in the same setting: for `NCCCNC(=O)CCCCCNC(=O)[C@H]1O[C@@H](n2cnc3c(N)ncnc32)[C@H](O)[C@@H]1O` the value was 5.22.

With `NC(=O)[C@@H](CCCN=C(N)N)NC(=O)CCCCCNC(=O)[C@H]1O[C@@H](n2cnc3c(N)ncnc32)[C@H](O)[C@@H]1O`, the pKd in experiment [1] is 7.05; in experiment [3] it was 6.60. For the same molecule, the pIC50 in experiment [2] is 5.68; in experiment [4], 5.79. In turn, `NCCCCNC(=O)CCCCCNC(=O)[C@H]1O[C@@H](n2cnc3c(N)ncnc32)[C@H](O)[C@@H]1O` had a pKd in experiment [3] of 5.79. Consider `NC(=O)[C@@H](Cc1ccc(C(=O)c2ccccc2)cc1)NC(=O)CCCCCNC(=O)[C@H]1O[C@@H](n2cnc3c(N)ncnc32)[C@H](O)[C@@H]1O`, for which the negative logarithm of the Kd (pKd) in experiment [3] is 5.71. For `NCCNC(=O)CCCCCNC(=O)[C@H]1O[C@@H](n2cnc3c(N)ncnc32)[C@H](O)[C@@H]1O`, in experiment [3], the pKd is 5.08.

`C[C@@H](NC(=O)CCCCCNC(=O)[C@H]1O[C@@H](n2cnc3c(N)ncnc32)[C@H](O)[C@@H]1O)C(=O)NCCCCCC(=O)N[C@H](CCCN=C(N)N)C(=O)N[C@H](CCCN=C(N)N)C(N)=O`: the pKd in experiment [1] is 6.92; in experiment [3], 8.24. In addition, the pIC50 was 7.01 in experiment [2] and 5.43 in experiment [4].

(Values after ChEMBL document CHEMBL1139385, “Structural analysis of ARC-type inhibitor (ARC-1034) binding to protein kinase A catalytic subunit and rational design of bisubstrate analogue inhibitors of basophilic protein kinases” (J Med Chem, 2009).)
